Reference: patent publication US20250275953A1, “VODOBATINIB FOR REDUCING PROGRESSION OF PARKINSON'S DISEASE” (Sun Pharma Advanced Research Company Ltd., priority 2022, published 2025)
Read-outs that look alike come from different tables or passages of the source.

Assay: Plasma pharmacokinetics, 7 once-daily oral doses, healthy volunteers
Format: in vivo, human
Settings: for Cmax / Tmax / AUC(0-t): male, human, plasma, oral
Experimental: After 28 days of screening, the subjects were studied in sequential cohorts of 6 subjects each. The study was conducted for 17 days. […] After the dose, subjects continued to fast for additional 4 hours, water was allowed ad libitum with the exception of 1 hour prior and 1-hour post dose.
The plasma and CSF samples were analyzed, by validated LC/MS-MS methods. PK analysis was conducted based on PK/PP Population: Cmax, AUC0-t, AUC0-24, AUC0-∞, Tmax, Cavg, CL/F, Cmin, t1/2, Kel, Vd (V/F; Vd/F), and Vss/F. Model-independent plasma PK parameters (Cmax, Tmax, t1/2, AUC0-t, AUC0-24, AUC0-∞, Cavg, CL/F, Vss/F, Vd/F), after the first dose (Day 1) and last dose (Day 7), Cmin on Days 2-7) was listed by subject and summarized by study cohort. In addition to the descriptive statistics listed above, geometric means was reported for the pivotal PK endpoints (CL/F, Vss/F, Vd/F, Cmin, Cavg, AUC0-t, AUC0-24, AUC0-∞, and Cmax). For CSF, PK parameters (Cmax, Tmax, t1/2, AUC0-t, AUC0-24, Cmin, Cavg, CL/F, Vss/F) was listed by subject and summarized by cohort. Ratios of CSF: plasma concentration at each time point was listed by subject and summarized by study cohort.
Forty-one healthy adult male volunteers aged 18 to 45 with body mass indexes (BMI)≥18 to ≤30 Kg/m^2 and total body weight >50 kg (110 lb) were screened in order to enroll 19 subjects with an average age of 34.2 years (range 21.5-45.6 years) into this study Six participants were randomly assigned to the 48 and 192 mg cohorts, and seven participants were assigned to the 384 mg cohort. After an overnight fast, participants received once daily doses of vodobatinib as capsules for 7 days. Serial PK blood samples to measure vodobatinib plasma concentrations were collected at pre-dose and at 0.25, 0.5, 1, 1.5, 2, 2.5, 3, 4, 6, 8, 12, 16 and 24 h post-dose after the first dose on Day 1 and the last dose on day 7. Additional PK samples prior to the morning doses were taken on Days 3-6. On the morning of Day 7, prior to dosing, an indwelling intrathecal catheter was inserted in the lumbar region (L3-L5). Serial CSF samples were collected through the catheter connected via peristaltic pump to a fraction collector. At each designated CSF collection time point, 8 mL of CSF was collected at a flow rate of 0.5 mL/min over a 16-min period at pre-dose, and 0.5, 1.0, 1.5, 2, 2.5, 3, 4, 6, 8, 12 and 24 h post-dose. The first 2 mL of CSF was discarded, and the remaining 6 mL was used for the vodobatinib assay. The occurrence of treatment-emergent adverse events (TEAEs) and serious AEs (SAEs) reported through the completion of study were collected.

[1] = 48 mg, Day 7, plasma, healthy volunteers
[2] = 192 mg, Day 1, plasma, healthy volunteers
[3] = 192 mg, Day 7, plasma, healthy volunteers
[4] = 384 mg, Day 1, plasma, healthy volunteers
[5] = 384 mg, Day 7, plasma, healthy volunteers

For Cc1ccc(C(=O)NNC(=O)c2c(C)cccc2Cl)cc1C#Cc1cnc2ccccc2c1 [N′-(2-chloro-6-methylbenzoyl)-4-methyl-3-[2-(3-quinolyl)ethynyl]-benzohydrazide], the “AUC0-24 GM” value (48 mg, Day 1, plasma, healthy volunteers) was 8691.6 ng·h/mL, the “AUC0-24 GM” value [1] was 10346.9 ng·h/mL and the “Cmax GM” value [1] was 1241.4 ng/mL. For the same molecule, the “AUC0-24 GM” value [2] was 33425.8 ng·h/mL, the “Cmax GM” value [2] was 3550.7 ng/mL and the “AUC0-24 GM” value [3] was 39138.2 ng·h/mL. For the same molecule, the “Cmax GM” value [3] was 5020.9 ng/mL, the “AUC0-24 GM” value [4] was 35536.5 ng·h/mL and the “Cmax GM” value [4] was 5387.1 ng/mL. The “AUC0-24 GM” value [5] was 42124.5 ng·h/mL, the “Cmax GM” value [5] was 6648.7 ng/mL and the “time within which peak plasma concentrations (Cmax) achieved” value (Day 1, across 48-384 mg cohorts) was 2.8 to 4.0 h. It also gave a Cmax (48 mg, Day 1, plasma, Healthy Subjects, Table 10, read-out: Cmax Mean) of 1380 ng/mL, a Tmax (48 mg, Day 1, plasma, Healthy Subjects, Table 10, read-out: Tmax median) of 2.8 h and an AUC(0-t) (48 mg, Day 1, plasma, Healthy Subjects, read-out: AUC0-24 Mean) of 8870 ng·h/mL. For the same molecule, the AUC(0-t) (48 mg, Day 1, plasma, healthy volunteers, read-out: AUC0-24 AM) was 8870 ng·h/mL, the AUC(0-t) (48 mg, Day 1, plasma, healthy volunteers, read-out: AUC0-24 GM) was 8690 ng·h/mL and the AUC(0-t) (48 mg, Day 1, plasma, healthy volunteers, read-out: AUC0-24 Median) was 8880 ng·h/mL. The AUC(0-t) (48 mg, Day 1, plasma, healthy volunteers, read-out: AUC0-24 Min, Max) was 5850 to 10800 ng·h/mL, the Cmax (48 mg, Day 1, plasma, healthy volunteers, read-out: Cmax AM) was 1380 ng/mL and the Cmax (48 mg, Day 1, plasma, healthy volunteers, read-out: Cmax GM) was 1330 ng/mL. The Cmax (48 mg, Day 1, plasma, healthy volunteers, read-out: Cmax Median) was 1220 ng/mL, the Cmax (48 mg, Day 1, plasma, healthy volunteers, read-out: Cmax Min, Max) was 1010 to 2000 ng/mL and the Tmax (48 mg, Day 1, plasma, healthy volunteers, read-out: Tmax Median) was 2.8 h. For the same molecule, the Tmax (48 mg, Day 1, plasma, healthy volunteers, read-out: Tmax Min, Max) was 1.5 to 4 h, the Cmax (48 mg, Day 7, plasma, Healthy Subjects, Table 10, read-out: Cmax Mean) was 1400 ng/mL and the Tmax (48 mg, Day 7, plasma, Healthy Subjects, Table 10, read-out: Tmax median (range)) was 4 h. The AUC(0-t) (48 mg, Day 7, plasma, Healthy Subjects, read-out: AUC0-24 Mean) was 12900 ng·h/mL, the AUC(0-t) (48 mg, Day 7, plasma, healthy volunteers, read-out: AUC0-24 AM) was 12900 ng·h/mL and the AUC(0-t) (48 mg, Day 7, plasma, healthy volunteers, read-out: AUC0-24 GM) was 10300 ng·h/mL. It also gave an AUC(0-t) (48 mg, Day 7, plasma, healthy volunteers, read-out: AUC0-24 Median) of 11000 ng·h/mL, an AUC(0-t) (48 mg, Day 7, plasma, healthy volunteers, read-out: AUC0-24 Min, Max) of 2970 to 29000 ng·h/mL and a Cmax (48 mg, Day 7, plasma, healthy volunteers, read-out: Cmax AM) of 1400 ng/mL. For the same molecule, the Cmax (48 mg, Day 7, plasma, healthy volunteers, read-out: Cmax GM) was 1240 ng/mL, the Cmax (48 mg, Day 7, plasma, healthy volunteers, read-out: Cmax Median) was 1340 ng/mL and the Cmax (48 mg, Day 7, plasma, healthy volunteers, read-out: Cmax Min, Max) was 421 to 2380 ng/mL. The Tmax (48 mg, Day 7, plasma, healthy volunteers, read-out: Tmax Median) was 4 h, the Tmax (48 mg, Day 7, plasma, healthy volunteers, read-out: Tmax Min, Max) was 1.5 to 12 h and the Cmax (192 mg, Day 1, plasma, Healthy Subjects, Table 10, read-out: Cmax Mean) was 3780 ng/mL. The Tmax (192 mg, Day 1, plasma, Healthy Subjects, Table 10, read-out: Tmax median) was 3.5 h, the AUC(0-t) (192 mg, Day 1, plasma, Healthy Subjects, read-out: AUC0-24 Mean) was 34500 ng·h/mL and the AUC(0-t) (192 mg, Day 1, plasma, healthy volunteers, read-out: AUC0-24 AM) was 34500 ng·h/mL. For the same molecule, the AUC(0-t) (192 mg, Day 1, plasma, healthy volunteers, read-out: AUC0-24 GM) was 33400 ng·h/mL, the AUC(0-t) (192 mg, Day 1, plasma, healthy volunteers, read-out: AUC0-24 Median) was 34700 ng·h/mL and the AUC(0-t) (192 mg, Day 1, plasma, healthy volunteers, read-out: AUC0-24 Min, Max) was 22400 to 45600 ng·h/mL. It also gave a Cmax (192 mg, Day 1, plasma, healthy volunteers, read-out: Cmax AM) of 3780 ng/mL, a Cmax (192 mg, Day 1, plasma, healthy volunteers, read-out: Cmax GM) of 3550 ng/mL and a Cmax (192 mg, Day 1, plasma, healthy volunteers, read-out: Cmax Median) of 3180 ng/mL. The Cmax (192 mg, Day 1, plasma, healthy volunteers, read-out: Cmax Min, Max) was 2740 to 7190 ng/mL, the Tmax (192 mg, Day 1, plasma, healthy volunteers, read-out: Tmax Median) was 3.5 h and the Tmax (192 mg, Day 1, plasma, healthy volunteers, read-out: Tmax Min, Max) was 1.62 to 4 h. The Cmax (192 mg, Day 7, plasma, Healthy Subjects, Table 10, read-out: Cmax Mean) was 5380 ng/mL, the Tmax (192 mg, Day 7, plasma, Healthy Subjects, Table 10, read-out: Tmax median (range)) was 4 h and the AUC(0-t) (192 mg, Day 7, plasma, Healthy Subjects, read-out: AUC0-24 Mean) was 44100 ng·h/mL. The AUC(0-t) (192 mg, Day 7, plasma, healthy volunteers, read-out: AUC0-24 AM) was 44100 ng·h/mL, the AUC(0-t) (192 mg, Day 7, plasma, healthy volunteers, read-out: AUC0-24 GM) was 39100 ng·h/mL and the AUC(0-t) (192 mg, Day 7, plasma, healthy volunteers, read-out: AUC0-24 Median) was 40100 ng·h/mL. For the same molecule, the AUC(0-t) (192 mg, Day 7, plasma, healthy volunteers, read-out: AUC0-24 Min, Max) was 20700 to 91500 ng·h/mL, the Cmax (192 mg, Day 7, plasma, healthy volunteers, read-out: Cmax AM) was 5380 ng/mL and the Cmax (192 mg, Day 7, plasma, healthy volunteers, read-out: Cmax GM) was 5020 ng/mL. It also gave a Cmax (192 mg, Day 7, plasma, healthy volunteers, read-out: Cmax Median) of 4690 ng/mL, a Cmax (192 mg, Day 7, plasma, healthy volunteers, read-out: Cmax Min, Max) of 3120 to 10100 ng/mL and a Tmax (192 mg, Day 7, plasma, healthy volunteers, read-out: Tmax Median) of 4 h. For the same molecule, the Tmax (192 mg, Day 7, plasma, healthy volunteers, read-out: Tmax Min, Max) was 4.01 to 4.08 h, the Cmax (384 mg, Day 1, plasma, Healthy Subjects, Table 10, read-out: Cmax Mean) was 6630 ng/mL and the Tmax (384 mg, Day 1, plasma, Healthy Subjects, Table 10, read-out: Tmax median) was 4 h. The AUC(0-t) (384 mg, Day 1, plasma, Healthy Subjects, read-out: AUC0-24 Mean) was 47600 ng·h/mL, the AUC(0-t) (384 mg, Day 1, plasma, healthy volunteers, read-out: AUC0-24 AM) was 47600 ng·h/mL and the AUC(0-t) (384 mg, Day 1, plasma, healthy volunteers, read-out: AUC0-24 GM) was 35500 ng·h/mL. For the same molecule, the AUC(0-t) (384 mg, Day 1, plasma, healthy volunteers, read-out: AUC0-24 Median) was 41900 ng·h/mL, the AUC(0-t) (384 mg, Day 1, plasma, healthy volunteers, read-out: AUC0-24 Min, Max) was 6640 to 105000 ng·h/mL and the Cmax (384 mg, Day 1, plasma, healthy volunteers, read-out: Cmax AM) was 6630 ng/mL. For the same molecule, the Cmax (384 mg, Day 1, plasma, healthy volunteers, read-out: Cmax GM) was 5390 ng/mL, the Cmax (384 mg, Day 1, plasma, healthy volunteers, read-out: Cmax Median) was 5580 ng/mL and the Cmax (384 mg, Day 1, plasma, healthy volunteers, read-out: Cmax Min, Max) was 1490 to 13700 ng/mL. For the same molecule, the Tmax (384 mg, Day 1, plasma, healthy volunteers, read-out: Tmax Median) was 4 h, the Tmax (384 mg, Day 1, plasma, healthy volunteers, read-out: Tmax Min, Max) was 1.5 to 6 h and the Cmax (384 mg, Day 7, plasma, Healthy Subjects, Table 10, read-out: Cmax Mean) was 7850 ng/mL. It also gave a Tmax (384 mg, Day 7, plasma, Healthy Subjects, Table 10, read-out: Tmax median (range)) of 3.5 h, an AUC(0-t) (384 mg, Day 7, plasma, Healthy Subjects, read-out: AUC0-24 Mean) of 54900 ng·h/mL and an AUC(0-t) (384 mg, Day 7, plasma, healthy volunteers, read-out: AUC0-24 AM) of 54900 ng·h/mL. The AUC(0-t) (384 mg, Day 7, plasma, healthy volunteers, read-out: AUC0-24 GM) was 42100 ng·h/mL, the AUC(0-t) (384 mg, Day 7, plasma, healthy volunteers, read-out: AUC0-24 Median) was 50000 ng·h/mL and the AUC(0-t) (384 mg, Day 7, plasma, healthy volunteers, read-out: AUC0-24 Min, Max) was 11500 to 125000 ng·h/mL. It also gave a Cmax (384 mg, Day 7, plasma, healthy volunteers, read-out: Cmax AM) of 7880 ng/mL, a Cmax (384 mg, Day 7, plasma, healthy volunteers, read-out: Cmax GM) of 6650 ng/mL and a Cmax (384 mg, Day 7, plasma, healthy volunteers, read-out: Cmax Median) of 6500 ng/mL. The Cmax (384 mg, Day 7, plasma, healthy volunteers, read-out: Cmax Min, Max) was 2870 to 17900 ng/mL, the Tmax (384 mg, Day 7, plasma, healthy volunteers, read-out: Tmax Median) was 3.5 h and the Tmax (384 mg, Day 7, plasma, healthy volunteers, read-out: Tmax Min, Max) was 2.52 to 4.03 h.
